From patent US20170151192A1, “METHODS, COMPOSITIONS AND DEVICES FOR TREATMENT OF MOTOR AND DEPRESSION SYMPTOMS ASSOCIATED WITH PARKINSON'S DISEASE” (N TO B LTD., priority 2013, published 2017)
Like-named read-outs stand apart in the source and are kept apart here.

How the values were obtained:
[1] = molecular target: T1, MAO-B (Rattus norvegicus, UniProt P19643); experiment: in vivo
Method: (§1) Control liquid formulations included vehicle only.
(§2) The animals were acutely administered intranasally and sacrificed 4 hours following drug/vehicle administration. The brain regions, hippocampus and striatum, as well as the small intestine were dissected out. […] In brief, samples were dissected out at 4° C. and homogenized. Homogenates were incubated with [C^14]serotonin for 30 minutes (final concentration 100 μM) as a substrate for MAO-A, or with [C^14]phenylethylamine for 20 minutes (final concentration 100 μM) as a substrate for MAO-B. The radioactivity was determined by liquid- scintillation.

[2] = molecular target: T2, MAO-A (Rattus norvegicus, UniProt P21396); experiment: in vivo; conditions: for inhibition at 6 mg/kg / inhibition at 0.6 mg/kg / inhibition at 1.5 mg/kg: rat, inhaled or nasal
T2 sequence (P21396 whole entry): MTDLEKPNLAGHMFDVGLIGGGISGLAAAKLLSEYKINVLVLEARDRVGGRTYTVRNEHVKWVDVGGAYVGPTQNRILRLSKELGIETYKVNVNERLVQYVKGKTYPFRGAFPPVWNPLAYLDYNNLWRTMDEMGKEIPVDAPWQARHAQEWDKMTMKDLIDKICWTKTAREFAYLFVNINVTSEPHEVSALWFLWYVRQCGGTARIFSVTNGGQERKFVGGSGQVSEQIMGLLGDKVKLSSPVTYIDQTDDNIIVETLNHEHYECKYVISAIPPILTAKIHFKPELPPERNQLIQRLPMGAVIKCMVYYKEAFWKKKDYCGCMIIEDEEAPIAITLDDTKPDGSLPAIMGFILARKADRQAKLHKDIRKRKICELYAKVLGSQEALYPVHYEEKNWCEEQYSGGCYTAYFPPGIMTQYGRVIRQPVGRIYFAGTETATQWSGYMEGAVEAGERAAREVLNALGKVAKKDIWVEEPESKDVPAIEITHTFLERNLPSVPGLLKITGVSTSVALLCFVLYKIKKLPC
Method: as §1, §2

[3] = molecular target: T1, MAO-B; conditions: both regimens (intranasal and oral), 0.24 and 0.6 mg/Kg, p<0.05, data not shown
Method: (§3) The animals were acutely administered and sacrificed 4 hours following drug/vehicle administration. The brain regions, hippocampus and striatum, as well as the small intestine were dissected out. All tissues were frozen at −80° C. for further analysis.

[4] = molecular target: T2, MAO-A
Method: as §3

[5] = system: pressor responses to oral tyramine; conditions: rats, cited from earlier work
[6] = molecular target: T1, MAO-B; conditions: 0.1 and 0.3 mg/kg, 1 hour after treatment
Text: (§4) Adult (3-month old) male Sprague Dawley rats, weighing about 250 grams, were from Harlan Laboratories, Inc Israel.

[7] = molecular target: T2, MAO-A; conditions: 0.3 mg/kg, 1 hour after treatment
Text: as §4

[8] = extensive first pass hepatic metabolism; cited from earlier work

T1 sequence (P19643 whole entry): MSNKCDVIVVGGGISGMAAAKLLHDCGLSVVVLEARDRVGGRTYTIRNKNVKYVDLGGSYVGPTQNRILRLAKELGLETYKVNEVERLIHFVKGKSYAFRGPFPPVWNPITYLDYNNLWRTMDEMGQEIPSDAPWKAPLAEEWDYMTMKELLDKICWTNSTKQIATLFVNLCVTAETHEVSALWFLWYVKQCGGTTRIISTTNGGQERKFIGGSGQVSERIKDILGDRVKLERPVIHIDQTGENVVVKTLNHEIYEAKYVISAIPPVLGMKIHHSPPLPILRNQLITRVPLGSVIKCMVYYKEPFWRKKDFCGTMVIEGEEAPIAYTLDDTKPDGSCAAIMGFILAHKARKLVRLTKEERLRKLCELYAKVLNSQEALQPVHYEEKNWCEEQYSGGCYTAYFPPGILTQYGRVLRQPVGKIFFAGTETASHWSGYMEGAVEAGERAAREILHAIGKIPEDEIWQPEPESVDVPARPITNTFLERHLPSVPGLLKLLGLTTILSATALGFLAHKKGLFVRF

In the case of `C#CCN[C@@H]1CCc2ccccc21` [Rasagiline, N-propargyl-1-(R)-aminoindan], the “MAO-B activity inhibition in striatum and hippocampus” value ([1]; intranasal, 0.24 to 6 mg/kg, both powder and liquid formulations, p<0.05 vs vehicle) was “about 98%”, the inhibition at 0.6 mg/kg ([1]; rat, inhaled or nasal, read-out: MAO-B Inhibition, Intestine, intranasal, 0.6 mg/kg liquid formulation, 4 h) was 63% and the inhibition at 0.6 mg/kg ([1]; rat, inhaled or nasal, read-out: MAO-B Inhibition, Intestine, intranasal, 0.6 mg/kg powder formulation, 4 h) was 68%. The inhibition at 1.5 mg/kg ([1]; rat, inhaled or nasal, read-out: MAO-B Inhibition, Intestine, intranasal, 1.5 mg/kg powder formulation, 4 h) was 72%, the inhibition at 6 mg/kg ([1]; rat, inhaled or nasal, read-out: MAO-B Inhibition, Intestine, intranasal, 6 mg/kg liquid formulation, 4 h) was 75% and the inhibition at 6 mg/kg ([1]; rat, inhaled or nasal, read-out: MAO-B Inhibition, Intestine, intranasal, 6 mg/kg powder formulation, 4 h) was 78%. The “MAO-A activity in striatum and hippocampus, dose dependence” value ([2]; intranasal powder formulation, 0.24, 0.6, 1.5 and 6 mg/kg, FIG. 6) was “dose-dependently inhibited”, the “striatal MAO-A inhibition, powder compared to liquid formulation” value ([2]; intranasal, 0.6 mg/kg, FIG. 5) was “significant higher inhibition” and the inhibition at 6 mg/kg ([2]; read-out: MAO-A inhibition in striatum and hippocampus, intranasal, 6 mg/kg powder formulation) was > 90%. It also gave an inhibition at 0.6 mg/kg ([2]; read-out: MAO-A inhibition, Brain, intranasal, 0.6 mg/kg liquid formulation, 4 h) of 33%, an inhibition at 0.6 mg/kg ([2]; read-out: MAO-A inhibition, Brain, intranasal, 0.6 mg/kg powder formulation, 4 h) of 44% and an inhibition at 6 mg/kg ([2]; read-out: MAO-A inhibition, Brain, intranasal, 6 mg/kg liquid formulation, 4 h) of 91%. For the same compound, the inhibition at 1.5 mg/kg ([2]; read-out: MAO-A inhibition, Hippocampus, intranasal, 1.5 mg/kg powder formulation, 4 h) was 86%, the inhibition at 0.6 mg/kg ([2]; read-out: MAO-A inhibition, Intestine, intranasal, 0.6 mg/kg liquid formulation, 4 h) was 32% and the inhibition at 0.6 mg/kg ([2]; read-out: MAO-A inhibition, Intestine, intranasal, 0.6 mg/kg powder formulation, 4 h) was 42%. The inhibition at 1.5 mg/kg ([2]; read-out: MAO-A inhibition, Intestine, intranasal, 1.5 mg/kg powder formulation, 4 h) was 74%, the inhibition at 6 mg/kg ([2]; read-out: MAO-A inhibition, Intestine, intranasal, 6 mg/kg liquid formulation, 4 h) was 86% and the inhibition at 6 mg/kg ([2]; read-out: MAO-A inhibition, Intestine, intranasal, 6 mg/kg powder formulation, 4 h) was 92%. The inhibition at 0.6 mg/kg ([2]; read-out: MAO-A inhibition, Liver, intranasal, 0.6 mg/kg liquid formulation, 4 h) was 19%, the inhibition at 0.6 mg/kg ([2]; read-out: MAO-A inhibition, Liver, intranasal, 0.6 mg/kg powder formulation, 4 h) was 44% and the inhibition at 6 mg/kg ([2]; read-out: MAO-A inhibition, Liver, intranasal, 6 mg/kg liquid formulation, 4 h) was 83%. For the same compound, the inhibition at 0.6 mg/kg ([2]; read-out: MAO-A inhibition, Striatum, intranasal, 0.6 mg/kg powder formulation, 4 h) was 61%, the inhibition at 6 mg/kg ([2]; read-out: MAO-A inhibition, Striatum, intranasal, 6 mg/kg powder formulation, 4 h) was 98% and the “MAO-B activity inhibition in striatum and hippocampus” value [3] was “about 99%”. For the same compound, the “MAO-A inhibition in striatum and hippocampus, intranasal (powder) compared to oral” value ([4]; 0.24 and 0.6 mg/Kg, 4 h, FIGS. 8A-B) was “significantly increased”, the “MAO-A inhibition in the periphery (small intestine), intranasal compared to P.O.” value ([4]; 0.24 and 0.6 mg/kg, FIG. 9) was “significantly lower” and the “cheese reaction (MAO-A and MAO-B both inhibited)” value ([5]; 10 mg/kg oral dose) was “induces the “cheese reaction””. For the same compound, the “potentiation of pressor responses to oral tyramine” value ([5]; 21 days chronic treatment, oral doses up to 2 mg/kg daily) was “does not potentiate”, the “potentiation of pressor responses to oral tyramine” value ([5]; single oral doses up to 5 mg/kg) was “does not potentiate” and the “difference in brain MAO-B inhibition between IP and NAS” value ([6]; FIG. 2) was “no significant difference”. The “differences in liver MAO-B inhibition between IP and NAS” value ([6]; FIG. 4) was “No significant differences”, the “brain MAO-A inhibition, NAS delivery compared to IP” value ([7]; FIG. 1) was “significantly inhibited” and the “liver MAO-A inhibition, IP compared to NAS delivery” value ([7]; FIG. 3) was “significantly inhibited”.
In the case of `C#CCN(C)[C@H](C)Cc1ccccc1` [Selegiline, (R)-N-methyl-N-(1-phenylpropan-2-yl)prop-1-yn-3-amine], the oral bioavailability [8] is given as 4-10%.
